Legend:
[1] = Amlodipine content in supernatant of amlodipine salt batches (0.45 micron filtration, HPLC); assay type: physicochemical; details: batches prepared by mixing; ~10-fold molar salt forming agent; polysorbate 80 in water
Method: Amlodipine salts were prepared according to the formulas in Table 1 and Table 2. The formulations in Table 1 were prepared by adding purified water to a glass container containing a magnetic stir-bar and mixing with an external magnetic stir-plate. The polysorbate 80 was added and allowed to dissolve with mixing for a minimum of 10 minutes. Amlodipine besylate was then added and dispersed in the solution with mixing for a minimum of 10 minutes. The salt forming agent was then added to the suspension and the resulting suspension was mixed for an additional 30 minutes. The amount of the added salt forming agent was approximately 10-fold the amount of amlodipine on a mole basis. A control formulation was prepared to provide a solubility value for amlodipine besylate.
The formulations in Table 2 were prepared by adding purified water to a glass container positioned in an ultrasonic bath. Mixing was initiated with an overhead mixer and impeller. The polysorbate 80 was added and allowed to dissolve with mixing for a minimum of 10 minutes. Amlodipine besylate was then added and dispersed in the solution with mixing for a minimum of 10 minutes. […]
An aliquot of each suspension was filtered through a 0.45 micron nylon filter and the supernatant analyzed by an HPLC method for amlodipine content. […] Detection was by UV absorbance at 237 nm.

[2] = Soluble amlodipine in isolated solids (purified water, pH 5.3, tumbled 66 hours, HPLC); assay type: physicochemical; details: pH 5.3, aqueous buffer, thermodynamic from solid
Method: Batches 1A-1F had different amlodipine content in the supernatants than the amlodipine besylate control indicating formation of new salt forms. […] Aliquots of each solid were weighed into 15 mL polypropylene centrifuge tubes in duplicate except for batch 1A which was a single determination. Purified water was added to each tube and the pH of the resulting suspension adjusted to 5.3 with anhydrous citric acid or anhydrous sodium citrate powder as needed. A control was also prepared in duplicate containing only purified water and amlodipine besylate at pH 5.3. The tubes were capped, covered in foil to block light, and allowed to tumble end-over-end at ambient temperature for 66 hours. The suspensions were then filtered through 0.45 micron nylon filters and the resulting filtrates analyzed by HPLC for amlodipine content.

In the case of `CCOC(=O)C1=C(COCCN)NC(C)=C(C(=O)OC)C1c1ccccc1Cl` (stereo not drawn) [Control, Amlodipine besylate], the “Amlodipine content in supernatant” value [1] is reported as 4.80 mg/mL, the solubility at 66 h ([2]; Tube 1, pH adjusted to 5.3, ambient temperature) is reported as 1080 µg/mL and the solubility at 66 h ([2]; Tube 2, pH adjusted to 5.3, ambient temperature) is reported as 1080 µg/mL.

— patent publication US12383498B2, “Amlodipine formulations” (Azurity Pharmaceuticals, Inc., priority 2018, dated 2025)
